The supplement of paper PMC4862054

Assays:
Conditions in all cases: incubation time: 72 h
BT-474 [1] = assay: normalised response (% of control), CellTiter-Glo; higher = more viable cells (100 = DMSO, 0 = benzethonium chloride kill control)
Method in brief: (§1)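 The table gives the normalised signal for a single concentration in each entry. Breast cancer cell lines were seeded (20 µl suspension) into 384-well plates holding compound at 5 concentrations in 10-fold steps over a compound-specific 10,000-fold range and incubated 72 h, then read for CellTox Green fluorescence (485/520 nm) and CellTiter-Glo luminescence. Normalisation on each plate used 0.1 % DMSO (100) and a positive kill control (0).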

BT-549 [2] = assay: as above
Method in brief: as §1

CAL-120 [3] = assay: as above
Method in brief: as §1

CAL-148 [4] = assay: as above
Method in brief: as §1

CAL-51 [5] = assay: as above
Method in brief: as §1

CAL-85-1 [6] = assay: as above
Method in brief: as §1

DU-4475 [7] = assay: as above
Method in brief: as §1

HCC1143 [8] = assay: as above
Method in brief: as §1

HCC1599 [9] = assay: as above
Method in brief: as §1

HCC1937 [10] = assay: as above
Method in brief: as §1

HDQ-P1 [11] = assay: as above
Method in brief: as §1

Hs578T [12] = assay: as above
Method in brief: as §1

MCF-10A = assay: as above
Method in brief: as §1

MDA-MB-231 [13] = assay: as above
Method in brief: as §1

MDA-MB-436 [14] = assay: as above
Method in brief: as §1

MDA-MB-453 [15] = assay: as above
Method in brief: as §1

MDA-MB-468 [16] = assay: as above
Method in brief: as §1

MFM-223 [17] = assay: as above
Method in brief: as §1

SK-BR-3 [18] = assay: as above
Method in brief: as §1

BT-474 [19] = assay: normalised viability (% of control), CellTiter-Blue; higher = more viable cells (100 = DMSO, 0 = benzethonium chloride kill control)
Method in brief: (§2)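 The reported quantity is normalised viability at a single listed concentration of the series. Compound in 5 µl medium was pre-dispensed into 384-well plates and 20 µl of breast cancer cell suspension was added for 72 h. A 2 h, 37 °C CellTiter-Blue step (2.5 µl) preceded fluorescence reading at 560/590 nm, and plates were normalised to vehicle (100) and a positive kill control (0).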

BT-549 [20] = assay: as above
Method in brief: as §2

CAL-120 [21] = assay: as above
Method in brief: as §2

CAL-148 [22] = assay: as above
Method in brief: as §2

CAL-51 [23] = assay: as above
Method in brief: as §2

CAL-85-1 [24] = assay: as above
Method in brief: as §2

DU-4475 [25] = assay: as above
Method in brief: as §2

HCC1143 [26] = assay: as above
Method in brief: as §2

HCC1599 [27] = assay: as above
Method in brief: as §2

HCC1937 [28] = assay: as above
Method in brief: as §2

HDQ-P1 [29] = assay: as above
Method in brief: as §2

Hs578T [30] = assay: as above
Method in brief: as §2

MDA-MB-231 [31] = assay: as above
Method in brief: as §2

MDA-MB-436 [32] = assay: as above
Method in brief: as §2

MDA-MB-453 [33] = assay: as above
Method in brief: as §2

MDA-MB-468 [34] = assay: as above
Method in brief: as §2

MFM-223 [35] = assay: as above
Method in brief: as §2

SK-BR-3 [36] = assay: as above
Method in brief: as §2

SMILES	normalised response (BT-474 [1])	normalised response (BT-549 [2])	normalised response (CAL-120 [3])	normalised response (CAL-148 [4])	normalised response (CAL-51 [5])	normalised response (CAL-85-1 [6])	normalised response (DU-4475 [7])	normalised response (HCC1143 [8])	normalised response (HCC1599 [9])	normalised response (HCC1937 [10])	normalised response (HDQ-P1 [11])	normalised response (Hs578T [12])	normalised response (MCF-10A)	normalised response (MDA-MB-231 [13])	normalised response (MDA-MB-436 [14])	normalised response (MDA-MB-453 [15])	normalised response (MDA-MB-468 [16])	normalised response (MFM-223 [17])	normalised response (SK-BR-3 [18])	normalised viability (BT-474 [19])	normalised viability (BT-549 [20])	normalised viability (CAL-120 [21])	normalised viability (CAL-148 [22])	normalised viability (CAL-51 [23])	normalised viability (CAL-85-1 [24])	normalised viability (DU-4475 [25])	normalised viability (HCC1143 [26])	normalised viability (HCC1599 [27])	normalised viability (HCC1937 [28])	normalised viability (HDQ-P1 [29])	normalised viability (Hs578T [30])	normalised viability (MDA-MB-231 [31])	normalised viability (MDA-MB-436 [32])	normalised viability (MDA-MB-453 [33])	normalised viability (MDA-MB-468 [34])	normalised viability (MFM-223 [35])	normalised viability (SK-BR-3 [36])
C[C@@H]1C=C2C(=O)O[C@@H]3CC[C@H](C1)[C@]23O [Galiellalactone] (5 nM)	106%	101%	105%	107%	104%	98.1%	97.2%	105%	102%	98%	107%	107%	111%	103%	107%	108%	108%	107%	108%	105%	112%	81.3%	115%	106%	94.9%	104%	98.9%	88.1%	84.3%	120%	109%	93.7%	94.6%	97%	96.7%	102%	94%
COC1=C2C[C@@H](C)C[C@H](OC)[C@H](O)[C@@H](C)/C=C(\C)[C@H](OC(N)=O)[C@@H](OC)/C=C\C=C(/C)C(=O)NC(=CC1=O)C2=O [Geldanamycin] (1 nM)	105%	101%	107%	129%	100%	101%	102%	107%	101%	101%	101%	108%	105%	103%	107%	127%	109%	103%	110%	112%	96.8%	92.6%	119%	105%	94.6%	132%	95.3%	87.6%	92.3%	124%	130%	96%	110%	108%	103%	99.9%	103%
Cn1cnc2c(F)c(Nc3ccc(Br)cc3F)c(C(=O)NOCCO)cc21 [MEK-162] (0.1 nM)	104%	98.5%	103%	96.2%	93.5%	100%	98.6%	94.3%	114%	94.4%	99.2%	94.3%	105%	101%	97.9%	115%	108%	101%	103%	122%	105%	83.7%	111%	109%	91.2%	106%	112%	108%	105%	102%	125%	116%	104%	100%	104%	92.1%	102%
CCOc1cc2ncc(C#N)c(Nc3ccc(OCc4ccccn4)c(Cl)c3)c2cc1NC(=O)/C=C/CN(C)C [Neratinib] (0.1 nM)	105%	103%	98.4%	105%	89%	97.2%	98.5%	100%	96.6%	97.8%	102%	106%	104%	98.3%	94.8%	117%	105%	108%	101%	97.3%	105%	86%	96.7%	91.5%	83%	107%	103%	104%	82.6%	86.8%	99.7%	99.6%	123%	105%	100%	99.2%	99.8%
